Measured values as given in patent US9688651B2, “Geranyl geranyl acetone analogs and uses thereof” (NYKEN Holding B.V., priority 2012, dated 2017).

Tests used:
[1] = test system: HSP70; experiment: Hsp70 induction in murine proximal tubule (MPT) cells (Western blot); assay type: cell-based; settings: 40 μM, 5 hours, outperformed positive control GGA
Procedure: Murine proximal tubule (MPT) cells were isolated and cultured as described previously (Borkan et al. Heat stress ameliorates ATP depletion-induced sublethal injury in mouse proximal tubule cells. Am. J. Physiol. 1997; F347-55).
The MPT cells were exposed to 40 μM of compound for 5 hours, after which the cells were harvested in RIPA buffer followed by Western blotting.
For Western-blot analysis, equal amount of protein in SDS-PAGE sample buffer was separated on 10% PAA-SDS gels. After transfer to nitrocellulose membranes (Stratagene, USA), membranes were incubated with primary antibodies against HSP70 (Enzo C92F3A/StressGen SP810) or beta-actin (Sigma A541). Horseradish peroxidase-conjugated anti-mouse or anti-sheep (Jackson ImmunoRes) was used as secondary antibody. Signals were detected by the ECL-detection method (Amersham).

[2] = test system: HSP27; experiment: HSP27 Western blot in MCF-7 cells; assay type: cell-based, human; parameters: key: + = P < 0.05; ++ = P < 0.01; +++ = P < 0.001; settings: MCF-7 lysate, 16-20 hours
Procedure: (§1) MCF-7 breast cancer cells were cultured in DMEM supplemented with 10% FCS. Test compounds were added to the medium in a final concentration of […] for 16-20 hours. Ratio death and living cells was determined by using trypan blue staining of death cells. The cell pellets were lysed in RIPA buffer and used for Western blot analysis.
(§2) Western-blot analysis was performed as described previously^3, 10. Equal amount of protein in SDS-PAGE sample buffer was sonicated before separation on 10% PAA-SDS gels. After transfer to nitrocellulose membranes (Stratagene, The Netherlands), membranes were incubated with primary antibodies against HSP25 (Stressgen, The Netherlands, SPA-801, 1:1000), HSP27 (Stressgen, SPA-800, 1:1000), HSP70 (Stressgen, SPA-810, 1:1000), GAPDH (Affinity Reagents, The Netherlands) or PARP (Santa Cruz, The Netherlands, sc-7150, 1:500). Horseradish peroxidase-conjugated anti-mouse or anti-rabbit (Santa-Cruz Biotechnology, The Netherlands) was used as secondary antibody. Signals were detected by the ECL-detection method (Amersham, The Netherlands) and quantified by densitometry using GeneTools software from Syngene (The Netherlands).

[3] = test system: HSP70; experiment: HSP70 Western blot in MCF-7 cells; assay type: cell-based, human; parameters: key: + = P < 0.05; ++ = P < 0.01; +++ = P < 0.001; settings: MCF-7 lysate, 16-20 hours
Procedure: as §1, §2

[4] = test system: MCF-7 breast cancer cells; experiment: MCF-7 cell death, ratio death/living cells (trypan blue); assay type: cell-based, human; parameters: key to Cell Death MCF-7 cancer cells Death/living 100 μM: 0 = no dead cells; + = P < 0.05; ++ = P < 0.01; +++ = P < 0.001; settings: 100 μM; 16-20 hours; trypan blue
Procedure: MCF-7 breast cancer cells were cultured in DMEM supplemented with 10% FCS. […] Ratio death and living cells was determined by using trypan blue staining of death cells. The cell pellets were lysed in RIPA buffer and used for Western blot analysis.
Since we observed that some compounds aggravate tachypacing-induced contractile dysfunction, we next investigated if these compounds can induce programmed cell death in a human breast cancer cell-line MCF-7. […] In total 28 compounds were tested for cell death. […] GGA was used as a control as well as non-treated MCF-7 cells. […] The findings indicate that GGA-like compounds which aggravate heart failure can induce programmed cell death in MCF-7 breast cancer cell-line.

[5] = test system: HSP70; experiment: HSP70 protein boosting in HL-1 cardiomyocytes after mild heat shock (Western blot); assay type: cell-based, mouse; parameters: key to HSP boosting HL-1 cardiomyocytes Protein HSP70: 0 = no induction HSP levels; + = 2-10-fold induction; ++ = 10-30-fold induction; +++ = > 30-fold induction; settings: for HSP boosting HL-1 cardiomyocytes Protein HSP70: mild heat shock 44°C 10 min, then compound 10 μM for 6 hours, Western blot; for induction of mammalian HSP70 protein expression: HL-1, mild heat shock, 10 μM, 6 hours
Procedure: HL-1 atrial myocytes, a cell line derived from adult mouse atria were obtained from Dr. William Claycomb (Louisiana State University, New Orleans, La., USA). The myocytes were maintained in Complete Claycomb Medium (JRH, UK) supplemented with 100 μM norepinephrine stock (consisting of 10 mM norepinephrine (Sigma, The Netherlands) dissolved in 0.3 mM L-ascorbic acid (Sigma)), 4 mM L-glutamine (Gibco, The Netherlands) and 10% FBS (Sigma). The myocytes were cultured in flasks coated with 0.02% gelatin (Sigma), in a 5% CO2 atmosphere at 37° C.
HL-1 cardiomyocytes were subjected to a mild heat shock of 44° C. for 10 minutes. After a recovery of 10 minutes (37 degrees 5% CO2), compounds were added in a final concentration of 10 μM (dissolved in DMSO, final concentration 0.1%). To control myocytes, 0.1% DMSO was added. After six hours the cells were lysed in RIPA buffer and used for Western blotting as described previously.^3, 10
as §2
Compounds were also screened for HSP70 boosting effects. Hereto, HL-1 cardiomyocytes were first subjected to a mild heat shock which activates the Heat Shock Factor. After the mild heat shock, compound (10 μM) was added to the medium of HL-1 cardiomyocytes for 6 hours, followed by determination of the HSP70 amount.

[6] = test system: PARP; experiment: PARP cleavage in MCF-7 cells (Western blot); assay type: cell-based, human; parameters: key to Cell Death MCF-7 cancer cells PARP: 0 = no dead cells; + = P < 0.05; ++ = P < 0.01; +++ = P < 0.001; settings: MCF-7 lysate, Western blot, 16-20 hours
Procedure: as §1, §2
Since we observed that some compounds aggravate tachypacing-induced contractile dysfunction, we next investigated if these compounds can induce programmed cell death in a human breast cancer cell-line MCF-7. Hereto, MCF-7 cells were incubated for 16 hours with 10 μM of a test compound after which the number of death and living cells was determined. In total 28 compounds were tested for cell death. […] GGA was used as a control as well as non-treated MCF-7 cells. […] The findings indicate that GGA-like compounds which aggravate heart failure can induce programmed cell death in MCF-7 breast cancer cell-line.

[7] = test system: glucose-responsive protein 78 (Grp78); experiment: Grp78 mRNA (qPCR, HSF1-independent) in HL-1 cardiomyocytes; assay type: cell-based, mouse; parameters: key to HSP boosting HL-1 cardiomyocytes mRNA (qPCR) Grp78 Not HSF1: 0 = no induction HSP levels; + = 2-10-fold induction; ++ = 10-30-fold induction; +++ = > 30-fold induction; settings: for HSP boosting HL-1 cardiomyocytes mRNA (qPCR) Grp78 Not HSF1: mild heat shock, then compound 10 μM for 6 hours
Procedure: (§3) HL-1 cardiomyocytes were subjected to a mild heat shock of 44° C. for 10 minutes. After a recovery of 10 minutes (37 degrees 5% CO2), compounds were added in a final concentration of 10 μM (dissolved in DMSO, final concentration 0.1%). To control myocytes, 0.1% DMSO was added. After six hours the cells were lysed in RIPA buffer and used for Western blotting as described previously.^3, 10 Compounds were also screened for their ability to upregulate HSP gene expression. Hereto, HL-1 cardiomyocytes were first subjected to a mild heat shock which activates the Heat Shock Factor. After the mild heat shock, compound (10 μM) was added to the medium of HL-1 cardiomyocytes for 6 hours, followed by determination of HSP70, HSP25, HSP90 and HSP40 which are targets of the heat shock factor 1 (HSF1) transcription factor. In addition, we determined mRNA levels of the gene encoding the glucose-responsive protein 78 (Grp78) which is HSF1-independent.

[8] = test system: HSP40; experiment: HSP40 mRNA (qPCR) in HL-1 cardiomyocytes after mild heat shock; assay type: cell-based, mouse; settings: then compound 10 μM for 6 hours
Procedure: as §3

[9] = test system: HSP90; experiment: HSP90 mRNA (qPCR) in HL-1 cardiomyocytes after mild heat shock; assay type: cell-based, mouse; settings: then compound 10 μM for 6 hours
Procedure: as §3

[10] = test system: HSP25; experiment: HSP25 mRNA (qPCR) in HL-1 cardiomyocytes after mild heat shock; assay type: cell-based, mouse; settings: then compound 10 μM for 6 hours
Procedure: as §3

[11] = test system: HSP70, HSP25, HSP90 and HSP40; experiment: Upregulation of HSP gene expression (HSF1 targets) in HL-1 cardiomyocytes; assay type: cell-based, mouse; settings: HL-1, mild heat shock, 10 μM, 6 hours
Procedure: as §3

[12] = test system: HSP70; experiment: HSP70 mRNA (qPCR) in HL-1 cardiomyocytes after mild heat shock; assay type: cell-based, mouse; settings: then compound 10 μM for 6 hours
Procedure: as §3

| Structure (SMILES) | induction of HSP70 expression in renal (MPT) cells [1] | Cell Death MCF-7 cancer cells HSP 27 [2] | Cell Death MCF-7 cancer cells HSP 70 [3] | Cell Death MCF-7 cancer cells Death/living 100 μM [4] | HSP boosting HL-1 cardiomyocytes Protein HSP70 [5] | Cell Death MCF-7 cancer cells PARP [6] | HSP boosting HL-1 cardiomyocytes mRNA (qPCR) Grp78 Not HSF1 [7] | HSP boosting HL-1 cardiomyocytes mRNA (qPCR) HSP 40 [8] | induction of mammalian HSP70 protein expression [5] | HSP boosting HL-1 cardiomyocytes mRNA (qPCR) HSP 90 [9] | HSP boosting HL-1 cardiomyocytes mRNA (qPCR) HSP 25 [10] | upregulation of Grp78 mRNA ([7]; HL-1, mild heat shock, 10 μM, 6 hours) | induction of HSP gene expression [11] | HSP boosting HL-1 cardiomyocytes mRNA (qPCR) HSP 70 [12] |
| --- | --- | --- | --- | --- | --- | --- | --- | --- | --- | --- | --- | --- | --- | --- |
| CC(C)=CCC/C(C)=C/CCc1cc(C)[nH]n1 [Compound 32] | strong inducers | + (+ = P < 0.05) | 0 | 0 | + (+ = 2-10-fold induction) | 0 |  |  |  |  |  |  |  |  |
| CC(C)=CCC/C(C)=C/CN1C(=O)CCC1=O [Compound 47] | strong inducers |  |  |  |  |  |  |  |  |  |  |  |  |  |
| CC(C)=CCC/C(C)=C/CNC(=O)CN(C)C [Compound 49] | strong inducers | 0 | 0 | 0 | +++ (+++ = > 30-fold induction) | 0 | 0 | +++ (+++ = > 30-fold induction) | potent inducers | +++ (+++ = > 30-fold induction) | +++ (+++ = > 30-fold induction) |  |  |  |
| CCOC(=O)CC(=O)c1ccccc1O [Compound 60, Ethyl 3-(2-hydroxyphenyl)-3-oxopropanoate] |  |  |  |  |  |  |  |  | potent inducers |  |  | no upregulation | strong inducers |  |
| CCOC(=O)C(CC)C(=O)CC/C=C(\C)CCC=C(C)C (centres unmarked) [Compound 69] | strong inducers |  |  |  | 0 |  |  |  |  |  |  |  |  |  |
| CCOC(=O)CC(C(=O)CC/C=C(\C)CCC=C(C)C)C(=O)OCC (centres unmarked) [Compound 89] |  | 0 | 0 | 0 | + (+ = 2-10-fold induction) | 0 |  |  |  |  |  |  |  |  |
| CC(=O)N[C@@H](C)C(=O)NC/C=C(\C)CCC=C(C)C [Compound 95] | strong inducers |  |  |  | +++ (+++ = > 30-fold induction) |  | 0 | + (+ = 2-10-fold induction) | potent inducers | ++ (++ = 10-30-fold induction) | + (+ = 2-10-fold induction) |  |  |  |
| CCOC(=O)CC(=O)NC/C=C(\C)CCC=C(C)C [Compound 98] |  | ++ (++ = P < 0.01) | 0 | 0 | 0 | 0 |  |  |  |  |  |  |  |  |
| CCC(=O)N(C/C=C(\C)CCC=C(C)C)C(=O)CC [Compound 103] |  | 0 | 0 | 0 | 0 | 0 |  |  |  |  |  |  |  |  |
| CC(=O)OC/C=C(\C)CC/C=C(\C)COC1CCCCO1 (centres unmarked) [Compound 106] | strong inducers |  |  |  |  |  |  |  |  |  |  |  |  |  |
| CC(=O)CC/C=C(\C)CC/C=C(\C)CC/C=C(\C)CCC=C(C)C [GGA, (5E,9E,13E)-6,10,14,18-tetramethylnonadeca-5,9,13,17-tetraen-2-one, reference compound] |  | + (+ = P < 0.05) | 0 | 0 | ++ (++ = 10-30-fold induction) | 0 | 0 | + (+ = 2-10-fold induction) |  | ++ (++ = 10-30-fold induction) | ++ (++ = 10-30-fold induction) |  |  | + (+ = 2-10-fold induction) |
